What was measured:
death induced by 48/80 = assay: "In vivo" antihistaminic activity: protection from death induced by compound 48/80 in the rat; conditions: for ED50: ip, 4 h, i.p., rat, 48/80 0.5 mg/kg i.v. after 60 minutes, survival four hours after injection, read-out: ED-50 (dose capable of protecting 50% of the animals from death induced by 48/80)
Protocol: The antihistaminic activity was studied by determining the protection in the face of the mortality used by the product 48/80 in the rat. This test was performed in accordance with the technique described by C. J. E. Niemegeers et cols. (Arch. int. Pharmacodyn., 234, 164-176 (1978). The products according to the present invention are administered intra-peritonially to rats. After 60 minutes the compound 48/80 is administered (0.5 mg/kg, i.v.).
The protective activity is defined as the survival of the rats four hours after the i.v. injection of 48/80.
The activity of the products was studied at several doses in order to determine the dose capable of protecting 50% of the animals (ED-50).
"In vivo" antihistaminic activity Protection from death induced by 48/80

[1] = Sedative action: Irwin Test (passivity, ataxia); conditions: for Atax. (ataxia, alterations of coordination in locomotion), evaluated between 0 and 3 / Pas. (passivity, sedation, prostation), evaluation between 0 and 3 / Effect: toxic: rat, i.p.; for Atax. (ataxia, alterations of coordination in locomotion), evaluated between 0 and 3 / Pas. (passivity, sedation, prostation), evaluation between 0 and 3: 1, 2 and 3 hours after treatment
Protocol: Pas.: Passivity, sedation, prostation. Quantitative evaluation between 0 and 3. They were performed 1, 2 and 3 hours after the treatment.
Atax.: Ataxia, the alterations of coordination in locomotion were evaluated. They were evaluated between 0 and 3. They were performed 1, 2 and 3 hours after the treatment.
Sedative action: 1) Irwin Test

[2] = Sedative effect: potentiation of the sleep time induced by pentobarbital; conditions: for Potentiation of the sleep time induced by pentobarbital (in words): oral, example 5 up to 160 mg/kg, difenhidramine at 20 mg/kg; for Potentiation sleep time: sodium pentobarbital 35 mg/kg s.c. one hour later
Protocol: The study of the potentiation of the sleep time due to the pentobarbital was performed following the method described by L. E. Allen and cols. […] The products studied were administered orally. […] The sleep time was compared with a group of control animals, treated only with sodium pentobarbital.

SMILES | ED50 (death induced by 48/80) [mg/kg] | Atax. (ataxia, alterations of coordination in locomotion), evaluated between 0 and 3 ([1]; 40 mg/kg) | Pas. (passivity, sedation, prostation), evaluation between 0 and 3 ([1]; 40 mg/kg) | Effect: toxic ([1]; 80 mg/kg) | Atax. (ataxia, alterations of coordination in locomotion), evaluated between 0 and 3 ([1]; 80 mg/kg) | Pas. (passivity, sedation, prostation), evaluation between 0 and 3 ([1]; 80 mg/kg) | also measured
CN(C)CCOC(c1ccccc1)c1ccccc1 [Difenhidramine, reference compound] | 5.4 | 0.9 | 0 | – | – | – | Potentiation of the sleep time induced by pentobarbital (in words) [2]: potentiates significantly the sleep time at the dose of 20 mg/kg
Brc1cnn(CCCCN2CCN(C(c3ccccc3)c3ccccc3)CC2)c1 [Example 1, 4-Bromo-1-[4-(4-diphenylmethyl-1-piperazinyl)butyl]pyrazole] | 3.2 | 1.4 | 0.8 | Toxic | – | – | Atax. (ataxia, alterations of coordination in locomotion), evaluated between 0 and 3 ([1]; 20 mg/kg): 1.2; Pas. (passivity, sedation, prostation), evaluation between 0 and 3 ([1]; 20 mg/kg): 0.8
Clc1cnn(CCCCN2CCN(C(c3ccccc3)c3ccccc3)CC2)c1 [Example 2, 4-Chloro-1-[4-(-4-diphenylmethyl-1-piperazinyl)butyl]pyrazole] | 3 | 1.5 | 0.2 | Tox. | 0.4 | 0 | –
Brc1cnn(CCCN2CCN(C(c3ccccc3)c3ccccc3)CC2)c1 [Example 3, 4-Bromo-1-[3-(4-diphenylmethyl-1-piperazinyl)propyl]pyrazole] | 10 | – | – | – | 0.7 | 0 | –
O=C(O)c1cnn(CCCCN2CCN(C(c3ccccc3)c3ccccc3)CC2)c1 [Example 4, 1-[4-(4-Diphenylmethyl-1-piperazinyl)butyl]-4-carboxy pyrazole] | 0.62 | – | – | – | 1 | 0.9 | Atax. (ataxia, alterations of coordination in locomotion), evaluated between 0 and 3 ([1]; 160 mg/kg): 1.6; Pas. (passivity, sedation, prostation), evaluation between 0 and 3 ([1]; 160 mg/kg): 1.2
Cc1cnn(CCCCN2CCN(C(c3ccccc3)c3ccccc3)CC2)c1 [Example 5, 1-4-[4-(-Diphenylmethyl-1-piperazinyl)butyl]-4-methyl pyrazole] | 0.62 | – | – | – | 0.5 | 0.7 | antihistaminic activity (in words) (death induced by 48/80; compared with difenhidramine): one of the most powerful of the products; sedative action / side effects on the central nervous system (in words) ([1]; in words): less sedative action; Potentiation sleep time ([2]; 40 mg/kg p.o., N.S. (not significant)): 15%; Potentiation sleep time ([2]; 80 mg/kg p.o., N.S. (not significant)): 21%; Potentiation sleep time ([2]; 160 mg/kg p.o., * significant vs control (p < 0.05)): 33%; Potentiation of the sleep time induced by pentobarbital (in words) [2]: does not potentiate the sleep time induced by the pentobarbital except at the dose of 160 mg/kg
c1ccc(C(c2ccccc2)N2CCN(CCCCn3ccnc3)CC2)cc1 [Example 6, 1-[4-(4-Diphenylmethyl-1-piperazinyl)butyl]imidazole] | 2.5 | – | – | – | 0.3 | 1.3 | –
c1ccc(C(c2ccccc2)N2CCN(CCCCn3cncn3)CC2)cc1 [Example 7, 1-[4-(4-Diphenylmethyl-1-piperazinyl)butyl]-1,2,4,-triazole] | 0.6 | – | – | Toxic | – | – | –
c1ccc(C(c2ccccc2)N2CCN(CCCCn3cccc3)CC2)cc1 [Example 8, 1-[4-(4-Diphenylmethyl-1-piperazinyl)butyl]pyrrole] | 6.7 | – | – | – | – | – | –
